According to patent US8952024B2, “Herbicidal pyrimidone derivatives” (E I du Pont de Nemours and Company, priority 2009, dated 2015):

Columns and labels:
Type in all cases: in vivo
[1] = system: pigweed (Amaranthus retroflexus); experiment: Test B pre-/postemergence plant response
Procedure, shortened: (§1)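 Greenhouse herbicide screen. Pre- and postemergence (1- to 4-leaf) spray of compound in solvent/surfactant mixture; loam–sand soil for pre, peat/vermiculite medium for post. Visual control rating 0–100 at 13 to 15 days after treatment.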

wild oat (Avena fatua) = experiment: Test B pre-/postemergence plant response
Procedure, shortened: as §1

[2] = system: downy bromegrass (Bromus tectorum); experiment: Test B pre-/postemergence plant response
Procedure, shortened: as §1

[3] = system: blackgrass (Alopecurus myosuroides); experiment: Test B pre-/postemergence plant response
Procedure, shortened: as §1

[4] = system: cocklebur (Xanthium strumarium); experiment: Test B pre-/postemergence plant response
Procedure, shortened: as §1

corn (Zea mays) = experiment: Test B pre-/postemergence plant response
Procedure, shortened: as §1

[5] = system: morningglory (Ipomoea coccinea); experiment: Test B pre-/postemergence plant response
Procedure, shortened: as §1

[6] = system: Surinam grass (Brachiaria decumbens); experiment: Test B pre-/postemergence plant response
Procedure, shortened: as §1

[7] = system: Italian ryegrass (Lolium multiflorum); experiment: Test B pre-/postemergence plant response
Procedure, shortened: as §1

[8] = system: giant foxtail (Setaria faberii); experiment: Test B pre-/postemergence plant response
Procedure, shortened: as §1

[9] = system: chickweed (Stellaria media); experiment: Test B postemergence plant response
Procedure, shortened: (§2)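 Plants grown in peat/vermiculite medium were sprayed postemergence at 2–18 cm height (1- to 4-leaf stage). After 13–15 days in the greenhouse, response was rated visually against untreated controls on a 0–100 scale (0 no effect, 100 complete control).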

[10] = system: windgrass (Apera spica-venti); experiment: Test B postemergence plant response
Procedure, shortened: as §2

[11] = system: canarygrass (Phalaris minor); experiment: Test B postemergence plant response
Procedure, shortened: as §2

[12] = 31 g ai/ha, postemergence, scale 0 to 100, 0 is no effect, 100 is complete control
[13] = 62 g ai/ha, postemergence, 0 is no effect, 100 is complete control, 13 to 15 days
[14] = Postemergence, 125 g ai/ha, visual rating after 13 to 15 days, scale 0 (no effect) to 100 (complete control)
[15] = Postemergence, 250 g ai/ha, scale 0 to 100 (0 no effect, 100 complete control)
[16] = Preemergence, 31 g ai/ha, scale 0 to 100 (0 no effect, 100 complete control)
[17] = Preemergence, 62 g ai/ha, scale 0 to 100 (0 no effect, 100 complete control)
[18] = Preemergence, 125 g ai/ha, scale 0 to 100, 0 no effect, 100 complete control
[19] = 250 g ai/ha, Preemergence, 0 to 100 scale
[20] = Postemergence, 31 g ai/ha, scale 0 to 100 (0 no effect, 100 complete control)
[21] = Postemergence, 62 g ai/ha, scale 0 (no effect) to 100 (complete control), 13 to 15 days
[22] = Postemergence, 250 g ai/ha, scale 0 to 100
[23] = Preemergence, 125 g ai/ha, 0 to 100 scale

## CCCc1ncc(C(=O)C2=C(O)CCCC2=O)c(=O)n1-c1ccccc1C [Compound 73]
[1]; [12]
  Plant response rating, Pigweed: 80
[1]; [13]
  Pigweed plant response rating (0 to 100 scale): 98
[1]; [14]
  Plant response rating, Pigweed: 100
[1]; [15]
  Plant response rating, Pigweed: 100
[1]; [16]
  Plant response rating, Pigweed: 95
[1]; [17]
  Plant response rating, Pigweed: 100
[1]; [18]
  Plant response rating, Pigweed: 100
Wild oat (Avena fatua); [12]
  Plant response rating, Oat, Wild: 55
Wild oat (Avena fatua); [13]
  Oat, Wild plant response rating (0 to 100 scale): 80
Wild oat (Avena fatua); [14]
  Plant response rating, Oat, Wild: 80
Wild oat (Avena fatua); [15]
  Plant response rating, Oat, Wild: 95
Wild oat (Avena fatua); [16]
  Plant response rating, Oat, Wild: 0
Wild oat (Avena fatua); [17]
  Plant response rating, Oat, Wild: 0
Wild oat (Avena fatua); [18]
  Plant response rating, Oat, Wild: 0
[2]; [12]
  Plant response rating, Bromegrass, Downy: 20
[2]; [13]
  Bromegrass, Downy plant response rating (0 to 100 scale): 45
[2]; [19]
  Plant response rating, Bromegrass, Downy: 20
[2]; [14]
  Plant response rating, Bromegrass, Downy: 50
[2]; [15]
  Plant response rating, Bromegrass, Downy: 60
[2]; [16]
  Plant response rating, Bromegrass, Downy: 0
[2]; [17]
  Plant response rating, Bromegrass, Downy: 5
[2]; [18]
  Plant response rating, Bromegrass, Downy: 5
[3]; [12]
  Plant response rating, Blackgrass: 0
[3]; [13]
  Blackgrass plant response rating (0 to 100 scale): 10
[3]; [19]
  Plant response rating, Blackgrass: 10
[3]; [14]
  Plant response rating, Blackgrass: 10
[3]; [15]
  Plant response rating, Blackgrass: 30
[3]; [16]
  Plant response rating, Blackgrass: 0
[3]; [17]
  Plant response rating, Blackgrass: 0
[3]; [18]
  Plant response rating, Blackgrass: 0
[4]; [12]
  Plant response rating, Cocklebur: 0
[4]; [13]
  Cocklebur plant response rating (0 to 100 scale): 45
[4]; [19]
  Plant response rating, Cocklebur: 65
[4]; [14]
  Plant response rating, Cocklebur: 65
[4]; [15]
  Plant response rating, Cocklebur: 80
[4]; [16]
  Plant response rating, Cocklebur: 0
[4]; [17]
  Plant response rating, Cocklebur: 0
[4]; [18]
  Plant response rating, Cocklebur: 60
Corn (Zea mays); [12]
  Plant response rating, Corn: 20
Corn (Zea mays); [13]
  Corn plant response rating (0 to 100 scale): 80
Corn (Zea mays); [19]
  Plant response rating, Corn: 10
Corn (Zea mays); [14]
  Plant response rating, Corn: 80
Corn (Zea mays); [15]
  Plant response rating, Corn: 85
Corn (Zea mays); [16]
  Plant response rating, Corn: 0
Corn (Zea mays); [17]
  Plant response rating, Corn: 0
Corn (Zea mays); [18]
  Plant response rating, Corn: 0
[5]; [12]
  Plant response rating, Morningglory: 0
[5]; [13]
  Morningglory plant response rating (0 to 100 scale): 50
[5]; [14]
  Plant response rating, Morningglory: 75
[5]; [15]
  Plant response rating, Morningglory: 95
[5]; [16]
  Plant response rating, Morningglory: 0
[5]; [17]
  Plant response rating, Morningglory: 0
[5]; [18]
  Plant response rating, Morningglory: 45
[6]; [12]
  Plant response rating, Surinam Grass: 80
[6]; [13]
  Surinam Grass plant response rating (0 to 100 scale): 85
[6]; [14]
  Plant response rating, Surinam Grass: 85
[6]; [15]
  Plant response rating, Surinam Grass: 85
[6]; [16]
  Plant response rating, Surinam Grass: 85
[6]; [17]
  Plant response rating, Surinam Grass: 100
[6]; [18]
  Plant response rating, Surinam Grass: 100
[7]; [12]
  Plant response rating, Ryegrass, Italian: 35
[7]; [13]
  Ryegrass, Italian plant response rating (0 to 100 scale): 45
[7]; [14]
  Plant response rating, Ryegrass, Italian: 60
[7]; [15]
  Plant response rating, Ryegrass, Italian: 70
[7]; [16]
  Plant response rating, Ryegrass, Italian: 0
[7]; [17]
  Plant response rating, Ryegrass, Italian: 0
[7]; [18]
  Plant response rating, Ryegrass, Italian: 0
[8]; [12]
  Plant response rating, Foxtail, Giant: 70
[8]; [13]
  Foxtail, Giant plant response rating (0 to 100 scale): 75
[8]; [19]
  Plant response rating, Foxtail, Giant: 80
[8]; [14]
  Plant response rating, Foxtail, Giant: 80
[8]; [15]
  Plant response rating, Foxtail, Giant: 90
[8]; [16]
  Plant response rating, Foxtail, Giant: 0
[8]; [17]
  Plant response rating, Foxtail, Giant: 70
[8]; [18]
  Plant response rating, Foxtail, Giant: 75
[9]; [12]
  Plant response rating, Chickweed: 80
[9]; [13]
  Chickweed plant response rating (0 to 100 scale): 80
[9]; [14]
  Plant response rating, Chickweed: 95
[9]; [15]
  Plant response rating, Chickweed: 100
[10]; [12]
  Plant response rating, Windgrass: 70
[10]; [13]
  Windgrass plant response rating (0 to 100 scale): 80
[10]; [14]
  Plant response rating, Windgrass: 90
[10]; [15]
  Plant response rating, Windgrass: 98
[11]; [12]
  Plant response rating, Canarygrass: 0
[11]; [13]
  Canarygrass plant response rating (0 to 100 scale): 0
[11]; [14]
  Plant response rating, Canarygrass: 5
[11]; [15]
  Plant response rating, Canarygrass: 40

## 3-cyclohexyl-5-[(2-hydroxy-6-oxo-1-cyclohexen-1-yl)carbonyl]-2-phenyl-4(3H)-pyrimidinone [Compound 128]
[1]; [19]
  Plant response rating, Pigweed: 100
[1]; [20]
  Plant response rating, Pigweed: 65
[1]; [21]
  Plant response rating, Pigweed: 80
[1]; [14]
  Plant response rating, Pigweed: 85
[1]; [22]
  Pigweed plant response rating: 98
[1]; [16]
  Plant response rating, Pigweed: 100
[1]; [17]
  Plant response rating, Pigweed: 100
[1]; [23]
  Pigweed plant response rating: 100
Wild oat (Avena fatua); [19]
  Plant response rating, Oat, Wild: 40
Wild oat (Avena fatua); [20]
  Plant response rating, Oat, Wild: 50
Wild oat (Avena fatua); [21]
  Plant response rating, Oat, Wild: 50
Wild oat (Avena fatua); [14]
  Plant response rating, Oat, Wild: 70
Wild oat (Avena fatua); [22]
  Oat, Wild plant response rating: 70
Wild oat (Avena fatua); [16]
  Plant response rating, Oat, Wild: 0
Wild oat (Avena fatua); [17]
  Plant response rating, Oat, Wild: 0
Wild oat (Avena fatua); [23]
  Oat, Wild plant response rating: 10
[2]; [19]
  Plant response rating, Bromegrass, Downy: 5
[2]; [20]
  Plant response rating, Bromegrass, Downy: 20
[2]; [21]
  Plant response rating, Bromegrass, Downy: 35
[2]; [14]
  Plant response rating, Bromegrass, Downy: 45
[2]; [22]
  Bromegrass, Downy plant response rating: 45
[2]; [16]
  Plant response rating, Bromegrass, Downy: 0
[2]; [17]
  Plant response rating, Bromegrass, Downy: 0
[2]; [23]
  Bromegrass, Downy plant response rating: 0
[3]; [19]
  Plant response rating, Blackgrass: 60
[3]; [20]
  Plant response rating, Blackgrass: 5
[3]; [21]
  Plant response rating, Blackgrass: 5
[3]; [14]
  Plant response rating, Blackgrass: 40
[3]; [22]
  Blackgrass plant response rating: 40
[3]; [16]
  Plant response rating, Blackgrass: 0
[3]; [17]
  Plant response rating, Blackgrass: 5
[3]; [23]
  Blackgrass plant response rating: 30
[4]; [19]
  Plant response rating, Cocklebur: 100
[4]; [20]
  Plant response rating, Cocklebur: 90
[4]; [21]
  Plant response rating, Cocklebur: 100
[4]; [14]
  Plant response rating, Cocklebur: 100
[4]; [22]
  Cocklebur plant response rating: 100
[4]; [16]
  Plant response rating, Cocklebur: 35
[4]; [17]
  Plant response rating, Cocklebur: 75
[4]; [23]
  Cocklebur plant response rating: 95
Corn (Zea mays); [19]
  Plant response rating, Corn: 35
Corn (Zea mays); [20]
  Plant response rating, Corn: 70
Corn (Zea mays); [21]
  Plant response rating, Corn: 75
Corn (Zea mays); [14]
  Plant response rating, Corn: 80
Corn (Zea mays); [22]
  Corn plant response rating: 85
Corn (Zea mays); [16]
  Plant response rating, Corn: 0
Corn (Zea mays); [17]
  Plant response rating, Corn: 0
Corn (Zea mays); [23]
  Corn plant response rating: 0
[5]; [19]
  Plant response rating, Morningglory: 100
[5]; [20]
  Plant response rating, Morningglory: 15
[5]; [21]
  Plant response rating, Morningglory: 15
[5]; [14]
  Plant response rating, Morningglory: 70
[5]; [22]
  Morningglory plant response rating: 80
[5]; [16]
  Plant response rating, Morningglory: 0
[5]; [17]
  Plant response rating, Morningglory: 0
[5]; [23]
  Morningglory plant response rating: 35
[6]; [19]
  Plant response rating, Surinam Grass: 75
[6]; [20]
  Plant response rating, Surinam Grass: 60
[6]; [21]
  Plant response rating, Surinam Grass: 70
[6]; [14]
  Plant response rating, Surinam Grass: 85
[6]; [22]
  Surinam Grass plant response rating: 85
[6]; [16]
  Plant response rating, Surinam Grass: 0
[6]; [17]
  Plant response rating, Surinam Grass: 25
[6]; [23]
  Surinam Grass plant response rating: 35
[7]; [19]
  Plant response rating, Ryegrass, Italian: 0
[7]; [20]
  Plant response rating, Ryegrass, Italian: 10
[7]; [21]
  Plant response rating, Ryegrass, Italian: 10
[7]; [14]
  Plant response rating, Ryegrass, Italian: 40
[7]; [22]
  Ryegrass, Italian plant response rating: 40
[7]; [16]
  Plant response rating, Ryegrass, Italian: 0
[7]; [17]
  Plant response rating, Ryegrass, Italian: 0
[7]; [23]
  Ryegrass, Italian plant response rating: 0
[8]; [19]
  Plant response rating, Foxtail, Giant: 100
[8]; [20]
  Plant response rating, Foxtail, Giant: 75
[8]; [21]
  Plant response rating, Foxtail, Giant: 85
[8]; [14]
  Plant response rating, Foxtail, Giant: 98
[8]; [22]
  Foxtail, Giant plant response rating: 100
[8]; [16]
  Plant response rating, Foxtail, Giant: 0
[8]; [17]
  Plant response rating, Foxtail, Giant: 35
[8]; [23]
  Foxtail, Giant plant response rating: 75
[9]; [20]
  Plant response rating, Chickweed: 80
[9]; [21]
  Plant response rating, Chickweed: 98
[9]; [14]
  Plant response rating, Chickweed: 100
[9]; [22]
  Chickweed plant response rating: 100
[10]; [20]
  Plant response rating, Windgrass: 40
[10]; [21]
  Plant response rating, Windgrass: 85
[10]; [14]
  Plant response rating, Windgrass: 85
[10]; [22]
  Windgrass plant response rating: 98
[11]; [20]
  Plant response rating, Canarygrass: 50
[11]; [21]
  Plant response rating, Canarygrass: 50
[11]; [14]
  Plant response rating, Canarygrass: 90
[11]; [22]
  Canarygrass plant response rating: 90
